Data set [1] has as its system B 697 promyelocytic cell line. Nature of the data set: Cytotoxicity on 697 cell line (CellTiter 96). Particulars: 72 hours incubation, read-out: 697 TOXICITY
Type of data set: cell-based. Here is the method:
(§1) Cytotoxic activity was evaluated on B 697 […] cell line for all synthesized compounds and on peripheral blood mononuclear cells (PBMCs) for compounds showing a good potency/selectivity profile.
(§2) Cells were seeded in plate (2×10^4 cells per well for 697, 5×10^5 cells per well for PBMCs). The test compounds (concentrations from 1.5 nM to 10000 nM for PBMCs and from 1 nM to 10000 nM for 697) were added after 24 hours and incubated 72 hours. The molecules cytotoxic activity was evaluated using CellTiter 96© Aqueous One Solution Cell Proliferation Assay (Promega), which measures the mitochondria function, following the manufacturer's instructions.

Data set [2] has as its target T1, recombinant human HDAC6 (Homo sapiens, UniProt Q9UBN7).
T1 sequence (Q9UBN7 1-1215): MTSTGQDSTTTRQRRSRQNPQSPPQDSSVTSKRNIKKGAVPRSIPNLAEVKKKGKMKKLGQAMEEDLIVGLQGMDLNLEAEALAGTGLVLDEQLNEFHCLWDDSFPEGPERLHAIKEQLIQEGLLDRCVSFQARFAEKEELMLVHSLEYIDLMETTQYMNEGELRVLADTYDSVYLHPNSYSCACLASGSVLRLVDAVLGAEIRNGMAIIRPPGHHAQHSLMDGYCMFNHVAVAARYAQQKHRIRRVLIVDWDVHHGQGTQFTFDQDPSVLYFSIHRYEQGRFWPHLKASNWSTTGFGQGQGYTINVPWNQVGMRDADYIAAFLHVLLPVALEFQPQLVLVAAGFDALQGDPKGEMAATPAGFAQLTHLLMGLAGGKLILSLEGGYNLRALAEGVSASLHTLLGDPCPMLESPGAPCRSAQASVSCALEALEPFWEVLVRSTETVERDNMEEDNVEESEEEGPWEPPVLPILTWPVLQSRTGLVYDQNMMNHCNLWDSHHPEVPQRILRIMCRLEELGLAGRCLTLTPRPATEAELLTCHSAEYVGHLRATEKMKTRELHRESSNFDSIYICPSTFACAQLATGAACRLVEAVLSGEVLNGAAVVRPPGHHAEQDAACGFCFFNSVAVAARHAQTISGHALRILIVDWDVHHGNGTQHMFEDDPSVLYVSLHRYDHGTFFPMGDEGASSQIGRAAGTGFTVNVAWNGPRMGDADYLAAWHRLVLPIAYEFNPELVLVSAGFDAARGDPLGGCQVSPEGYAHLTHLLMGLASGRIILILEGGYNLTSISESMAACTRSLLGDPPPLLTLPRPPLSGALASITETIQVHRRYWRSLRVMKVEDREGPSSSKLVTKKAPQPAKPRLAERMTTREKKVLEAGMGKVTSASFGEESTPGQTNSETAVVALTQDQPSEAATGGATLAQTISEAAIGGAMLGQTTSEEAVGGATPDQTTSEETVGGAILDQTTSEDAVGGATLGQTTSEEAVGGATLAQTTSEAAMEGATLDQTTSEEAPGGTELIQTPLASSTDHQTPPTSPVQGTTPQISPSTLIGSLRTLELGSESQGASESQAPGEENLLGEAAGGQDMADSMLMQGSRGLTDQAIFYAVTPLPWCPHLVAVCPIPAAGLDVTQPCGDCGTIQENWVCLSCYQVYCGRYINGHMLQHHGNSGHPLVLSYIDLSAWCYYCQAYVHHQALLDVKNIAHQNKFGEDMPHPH
The data set is described as follows: Enzymatic screening on recombinant human HDAC6. To be noted: Table 2; read-out: HDAC6 IC50. Format: biochemical. The method in brief: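 Substrates were Fluor de Lys, Fluor de Lys-Green or trifluoroacetyl-L-lysine, in 25 mM Tris-HCl pH 8, 130 mM NaCl, 0.05% Tween-20, 10% glycerol. They were added after isoform-dependent preincubation of recombinant human enzyme with compound at 30 °C, and the reaction also ran at 30 °C.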

Data set [3] relates to peripheral blood mononuclear cells (PBMCs). Nature of the data set: Cytotoxicity on PBMCs (CellTiter 96). Type of data set: cell-based. Particulars: PBMC, 72 h; read-out: PBMC TOXICITY (72 h). Here is the method:
as §1, §2

Data set [4] in a line: Stability in rat plasma. Format: in vitro ADME. To be noted: after 4 hours, 37° C. The method in brief: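 Compounds incubated at 37° C in rat or human plasma at 50 μM (UV/HPLC) or 1 or 2 μM (LC-MS/MS) for 0–4 h. Reaction stopped with acidified acetonitrile on ice; percent remaining versus initial amount and plasma half-life calculated.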
A short description of data set [5]: Stability to Phase I metabolism in rat S9 liver fraction. Particulars: after 90 min, 37° C. Type of data set: in vitro ADME. The gist of the method:
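Phase I stability in human and rat hepatic S9 at 37 °C, sampled up to 90 min. Samples were stopped with acidified acetonitrile on ice, then quantified by HPLC-UV or LC-MS/MS.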

We go through 18 compounds from US11351178B2, “Selective HDAC6 inhibitors” (ITALFARMACO S.P.A., priority 2017, dated 2022).

The structures appear in SMILES notation.

On to `COc1cccc(-c2nnc(Sc3ccc(C(=O)NO)cc3)n2C)c1` [comp. 78, 4-[[5-(3-methoxyphenyl)-4-methyl-1,2,4-triazol-3-yl]sulfanyl]benzenecarbohydroxamic acid], for which the IC50 in data set [1] amounted to 22.2 µM; in data set [2] it was 0.02 µM; in data set [3] it was 6 µM.

In the case of `Cn1c(Sc2ccc(C(=O)NO)cc2)nnc1-c1ccc2c(c1)OCO2` [comp. 84, 4-[[5-(1,3-benzodioxol-5-yl)-4-methyl-1,2,4-triazol-3-yl]sulfanyl]benzenecarbohydroxamic acid], the IC50 in data set [1] was found to be 5.2 µM; in data set [2] it was 0.021 µM; in data set [3], 4.5 µM.

For the compound `O=C(NO)c1ccc(Cn2nnc(-c3ncccn3)n2)cc1` [comp. 123, 4-[(5-pyrimidin-2-yltetrazol-2-yl)methyl]benzenecarbohydroxamic acid], the values for the IC50 in data set [1] and in data set [2] were 1.97 µM and 0.008 µM, respectively. Besides, in data set [4], the “residual percentage in rat plasma” value is recorded as 99%. For the same compound, in data set [5], the “residual percentage in rat S9 fraction” value came out at 99%.

As for `O=C(NO)c1cc(F)c(Cn2nnnc2-c2ccc(C(F)(F)F)cn2)c(F)c1` [comp. 129, 3,5-difluoro-4-[[5-[5-(trifluoromethyl)-2-pyridyl]tetrazol-1-yl]methyl]benzenecarbohydroxamic acid], the results for the IC50 in data set [1] and in data set [2] were 13.2 µM and 0.013 µM, respectively. Moreover, the “residual percentage in rat plasma” value in data set [4] amounted to 93%. In addition, the “residual percentage in rat S9 fraction” value in data set [5] is listed as 45%.

Regarding `O=C(NO)c1cc(F)c(Cn2nnc(Cc3ccccn3)n2)c(F)c1.O=C(O)C(F)(F)F` [comp. 134, 3,5-difluoro-4-[[5-(2-pyridylmethyl)tetrazol-2-yl]methyl]benzenecarbohydroxamic acid;2,2,2-trifluoroacetic acid], the IC50 in data set [1] was greater than 10 µM; in data set [2] it was 0.01 µM. For the same compound, in data set [4], the “residual percentage in rat plasma” value stood at 76%. Also, the “residual percentage in rat S9 fraction” value in data set [5] amounted to 95%.

In the case of `O=C(NO)c1cc(F)c(Sc2nnc(CN3CCCC3)n2Cc2ccccc2)c(F)c1` [comp. 141, 4-[[4-benzyl-5-(pyrrolidin-1-yl-methyl)-1,2,4-triazol-3-yl]sulfanyl]-3,5-difluoro-benzenecarbohydroxamic acid], the results for the IC50 in data set [1] and in data set [2] were greater than 10 µM and 0.025 µM, respectively. Also, the “residual percentage in rat plasma” value in data set [4] came to 73%. Also, the “residual percentage in rat S9 fraction” value in data set [5] was found to be 36%.

Regarding `O=C(NO)c1cc(F)c(Sc2nnc(-c3cccnc3)n2Cc2ccco2)c(F)c1` [comp. 147, 3,5-difluoro-4-[[4-(2-furylmethyl)-5-(3-pyridyl)-1,2,4-triazol-3-yl]sulfanyl]benzenecarbohydroxamic acid], the IC50 is greater than 10 µM in data set [1] and 0.016 µM in data set [2]. Also, the “residual percentage in rat plasma” value in data set [4] was 89%. For the same compound, the “residual percentage in rat S9 fraction” value in data set [5] worked out at 76%.

Take `Cn1c(Sc2c(F)cc(C(=O)NO)cc2F)nnc1C1(c2ccccc2)CCN(Cc2ccccc2)CC1` [comp. 150, 4-[[5-(1-benzyl-4-phenyl-4-piperidyl)-4-methyl-1,2,4-triazol-3-yl]sulfanyl]-3,5-difluoro-benzenecarbohydroxamic acid]: the IC50 in data set [1] worked out at 1.26 µM; in data set [2], 0.024 µM. Also, in data set [4], the “residual percentage in rat plasma” value was 92%. In addition, the “residual percentage in rat S9 fraction” value in data set [5] came out at 35%.

With `CN1CCN(S(=O)(=O)c2cccc(-c3nnc(Sc4c(F)cc(C(=O)NO)cc4F)n3C)c2)CC1` [comp. 151, 3,5-difluoro-4-[[4-methyl-5-[3-(4-methylpiperazin-1-yl)sulfonylphenyl]-1,2,4-triazol-3-yl]sulfanyl]benzenecarbohydroxamic acid], the IC50 in data set [1] amounted to 0.287 µM; in data set [2], 0.009 µM. In addition, in data set [4], the “residual percentage in rat plasma” value is 87%. In addition, in data set [5], the “residual percentage in rat S9 fraction” value is on record as 62%.

Turning to `Cn1c(Sc2c(F)cc(C(=O)NO)cc2F)nnc1-c1cccc(S(=O)(=O)N2CCN(Cc3ccccc3)CC2)c1` [comp. 152, 4-[[5-[3-(4-benzylpiperazin-1-yl)sulfonylphenyl]-4-methyl-1,2,4-triazol-3-yl]sulfanyl]-3,5-difluoro-benzenecarbohydroxamic acid], the IC50 turned out to be 1.45 µM in data set [1] and 0.022 µM in data set [2]. Also, in data set [4], the “residual percentage in rat plasma” value came to 113%. For the same compound, the “residual percentage in rat S9 fraction” value in data set [5] is recorded as 31%.

As to `COC(=O)c1ccc(Cc2nnn(Cc3c(F)cc(C(=O)NO)cc3F)n2)cc1` [comp. 154, methyl 4-[[2-[[2,6-difluoro-4-(hydroxycarbamoyl)phenyl]methyl]tetrazol-5-yl]methyl]benzoate], the IC50 was 22.7 µM in data set [1], 0.032 µM in data set [2] and greater than 10 µM in data set [3].

On to `COC(=O)c1ccc(-c2nnn(Cc3ccc(C(=O)NO)cc3)n2)nc1` [comp. 156, methyl 6-[2-[[4-(hydroxycarbamoyl)phenyl]methyl]tetrazol-5-yl]pyridine-3-carboxylate], for which the figures for the IC50 in data set [1], in data set [2] and in data set [3] were 1.57 µM, 0.061 µM and greater than 10 µM, respectively.

Consider `COC(=O)c1ccc(-c2nnnn2Cc2ccc(C(=O)NO)cc2)nc1` [comp. 157, methyl 6-[1-[[4-(hydroxycarbamoyl)phenyl]methyl]tetrazol-5-yl]pyridine-3-carboxylate], for which the IC50 in data set [1] came to 0.913 µM; in data set [2], 0.027 µM; in data set [3], 0.94 µM.

For `Cn1c(Cc2cccc3cccnc23)nnc1Sc1c(F)cc(C(=O)NO)cc1F` [comp. 164, 3,5-difluoro-4-[[4-methyl-5-(8-quinolylmethyl)-1,2,4-triazol-3-yl]sulfanyl]benzenecarbohydroxamic acid], the IC50 in data set [1] was found to be 1.4 µM; in data set [2], 0.045 µM; in data set [3], 0.661 µM.

With `Cn1c(Sc2c(F)cc(C(=O)NO)cc2F)nnc1-c1c(F)cccc1F` [comp. 165, 4-[[5-(2,6-difluorophenyl)-4-methyl-1,2,4-triazol-3-yl]sulfanyl]-3,5-difluoro-benzenecarbohydroxamic acid], the results for the IC50 in data set [1], in data set [2] and in data set [3] were 55.3 µM, 0.008 µM and greater than 10 µM, respectively.

For the compound `CN1CCN(c2cccc(-c3nnc(Sc4c(F)cc(C(=O)NO)cc4F)n3C)c2)CC1` [comp. 166, 3,5-difluoro-4-[[4-methyl-5-[3-(4-methylpiperazin-1-yl)phenyl]-1,2,4-triazol-3-yl]sulfanyl]benzenecarbohydroxamic acid], the IC50 in data set [1] is 61.4 µM; in data set [2] it was 0.009 µM; in data set [3], greater than 10 µM.

On to `Nc1ccc(-c2nnnn2Cc2c(F)cc(C(=O)NO)cc2F)cc1` [comp. 172, 4-[[5-(4-aminophenyl)tetrazol-1-yl]methyl]-3,5-difluoro-benzenecarbohydroxamic acid], for which the IC50 in data set [1] was 61.4 µM; in data set [2], 0.008 µM; in data set [3], greater than 10 µM.

With `NCc1ccc(-c2nnn(Cc3ccc(C(=O)NO)cc3)n2)cc1` [comp. 173, 4-[[5-[4-(aminomethyl)phenyl]tetrazol-2-yl]methyl]benzenecarbohydroxamic acid], the IC50 in data set [1] is 1.89 µM; in data set [2], 0.002 µM; in data set [3], 0.948 µM.
